Assay results published in patent publication EP1100507B1, “USE OF A COMBINATION COMPRISING A PRECURSOR OF URIC ACID AND ANTIOXIDANT FOR THE TREATMENT OF NEURODEGENERATIVE DESEASES” (Sacks, Meir S., priority 1998, dated 2000).

Legend:
[1] = Luminol dependent chemiluminescence activated by SIN-1 (peroxynitrite generator); format: biochemical
Description: (§1) We studied the effect of Green tea leaf extract on peroxynitrite. This study is based on a simple chemical interaction of peroxynitrite (OONO-) and luminol which produces blue light upon oxidation. […] In addition peroxynitrite itself was used directly with a fast injection-mixing system to ascertain if there might be differences between it and the peroxynitrite generating system (SIN-1) which mimics the natural production of (OONO-). […] Upon the stimulation of inflammation and/or infection, macrophages and neutrophils can be stimulated to produce large amounts of peroxynitrite.
(§2) The antioxidant effect of green tea and some of its constituents against luminol dependent chemiluminesence activated by peroxynitrite. Since peroxynitrite oxidizes luminol to an intermediate that produces light, antioxidants will inhibit this blue light by interfering with the oxidation of the luminol. In addition, we used SIN-1 which produces both superoxide and nitric oxide which combine to produce peroxynitrite. […] The purpose of this study was to measure the antioxidant activity of green tea extract and some of its prominent polyphenols. This is accomplished by using the antioxidants to oppose the oxidation of luminol by peroxynitrite thereby inhibiting the production of blue light.
(§3) Three sydnonimine congeners are known to produce both nitric oxide and superoxide and then combine to produce peroxynitrite (ONOO). […] It was kept on ice and maintained its activity for several hours of the experiment. Peroxynitrite (approx 50 mM) was diluted 1/1000 with water. The original solution is supplied in 0.3M NaOH and this stabilizes the compound. Once diluted it must be kept on ice and used quickly, especially after dilution. When the diluted OONO- is injected into the PBS buffer at pH=7.4. […] However, the slower reaction with SIN-1 gives an opportunity to dissect the reaction into its component parts, since rapid reaction and injection/mixing are not so crucial.
(§4) The luminol was obtained from Sigma Chemical Company, St. Louis, Mo. It was dissolved first in one ml DMSO and then diluted to produce a stock solution (10^-4M) in 0.1 M Phosphate buffered saline at a pH of 7.4.
Green tea powdered extract was purchased from Pharmanex, Simi Valley, California. 250mg was dissolved in 10ml of phosphate buffered saline (PBS) with pH of 7.4 and used as a stock solution. Dilutions were made using PBS and samples from this original stock solution were diluted every ten fold from one to a million (six samples).
A control solution was also used to provide a reference to the light stimulation produced by the combination of SIN-1 and luminol.
(§5) The luminometer tube was placed in a Berthold model LB9505C tube-6 channel luminometer with the temperature control set at 37°C and the light reaction was measured for 20 minutes. Peroxynitrite reacts with luminol directly and was injected using an essentially pressure-independent injection device, which injects 1/50 of it's total volume (2500 µm) of a gas tight syringe, made by the Hamilton Co. (pat. # 3161323) in Whittier, CA, to produce a blue light at 425 nm, which corresponds to the most sensitive detection range of the photomultipliers for this luminometer. The injection device was linked to a gastight 2500 microliter syringe with a fixed needle of 5.2 cm. This length of needle was necessary to penetrate the septum of the ports of the 6 channel Berthold Luminometer and to extend into the tube far enough to produce reproducible mixing necessary because of the short half-life of peroxynitrite. In Fig. 7, repetitive injections of peroxynitrite are shown giving the light generated over a one minute time period which was acquired, plotted and integrated with an IBM clone computer running KINB software. In the case of SIN-1, the ingredients were mixed prior to assay, with SIN-1 added fast. The assay is reported as counts per minute integrated over the 20 minute time period. […]

[2] = Luminol dependent chemiluminescence activated by directly injected peroxynitrite; format: biochemical; conditions: for inhibition of peroxynitrite-based luminol light: 1000 fold dilution; for relative antioxidant activity among the catechins tested: peroxynitrite or SIN-1 based light
Experimental: The end product of purine metabolism in humans is uric acid. This substance is an excellent antioxidant that can interact directly with nearby peroxynitrite. Figure 2 is a graph depicting interaction of peroxynitrite and uric acid and the inhibition of peroxynitrite based chemiluminescence. Figure 2 illustrates the oxidative reaction of peroxynitrite an luminol to produce light (chemiluminescence) and the interference with light which is produced by uric acid at a concentration of 10 µM. […] Allantoin is the end product of purine metabolism in animals except for man, great apes and some dalmatian dogs. […] Such an oxidant occurs most likely through peroxynitrite or possibly hypochlorite.
as §1, §2, §3, §4
as §5, with “software.” for “software. In the case of SIN-1, the ingredients were mixed prior to assay, with SIN-1 added fast. The assay is reported as counts per minute integrated over the 20 minute time period.”

[3] = cited from earlier work; for uricosuric effect / uric acid levels in the blood: normal, hyperuricemic and gouty humans; for abilities to increase uric acid levels: nucleotides compared to nucleosides; for increasing blood uric acid levels: nucleotides compared with DNA and RNA
[4] = administered in large amounts (95 mg/kg); oxidized to 2,8 dihydroxyadenine; cited from earlier work
[5] = system: allergic encephalomyelitis (EAE); conditions: mice, 500 mg/kg four times a day, started before or after clinical symptoms of EAE; cited from earlier work
[6] = cited from earlier work
[7] = 1:1000 dilution (stock 0.45 mMolar)
[8] = 1:100 dilution from stock at 0.45 mMolar

Oc1cc(O)c2c(c1)OC(c1ccc(O)c(O)c1)C(O)C2 (racemic) [racemic catechin, (±) catechin]
inhibition of SIN-1 activated luminol light [1, 7]: 50% | inhibition of SIN-1 activated luminol light ([1]; 1:1000 dilution (stock 0.45 mMolar), listed as Racemic catechin): about 50% | inhibition of SIN-1 activated luminol light ([1]; 10 fold dilutions after 1:1000): little inhibition | inhibition of peroxynitrite-based light ([2]; 1:10,000 dilution): 50% | inhibition of peroxynitrite-based light ([2]; 1:10,000 dilution, listed as Racemic catechin): about 50% | inhibition of peroxynitrite-based light ([2]; 1:100,000 dilution): 50% | inhibition of peroxynitrite-based luminol light [2]: about 50% | relative antioxidant activity among the catechins tested [2]: very active

Nc1ncnc2c1ncn2[C@@H]1O[C@H](COP(=O)(O)O)[C@@H](O)[C@H]1O [AMP]
uricosuric effect / uric acid levels in the blood [3]: raised uric acid levels in the blood | abilities to increase uric acid levels [3]: equivalent | increasing blood uric acid levels [3]: more effective than DNA and RNA

Nc1nc2c(ncn2[C@@H]2O[C@H](COP(=O)(O)O)[C@@H](O)[C@H]2O)c(=O)[nH]1 [GMP]
uricosuric effect / uric acid levels in the blood [3]: raised uric acid levels in the blood | abilities to increase uric acid levels [3]: equivalent | increasing blood uric acid levels [3]: more effective than DNA and RNA

Nc1ncnc2nc[nH]c12 [adenine]
uricosuric effect / uric acid levels in the blood [3]: raised uric acid levels in the blood | toxicity [4]: can crystallize to form kidney stones

Nc1nc2nc[nH]c2c(=O)[nH]1 [guanine]
uricosuric effect / uric acid levels in the blood [3]: ineffective

Nc1nc2c(ncn2[C@@H]2O[C@H](CO)[C@@H](O)[C@H]2O)c(=O)[nH]1 [guanosine]
abilities to increase uric acid levels [3]: equivalent

O=c1[nH]cnc2nc[nH]c12 [hypoxanthine]
uricosuric effect / uric acid levels in the blood [3]: raised uric acid levels in the blood | effectiveness as precursor of uric acid ([3]; overall, of AMP, GMP and hypoxanthine): most effective precursor of uric acid

OC[C@H]1O[C@@H](n2cnc3c(O)ncnc32)[C@H](O)[C@@H]1O [inosine]
abilities to increase uric acid levels [3]: equivalent

O=c1[nH]c(=O)c2[nH]c(=O)[nH]c2[nH]1 [uric acid]
inhibition of the oxidative reaction of peroxynitrite and luminol (chemiluminescence) ([2]; uric acid 10 µM, peroxynitrite 10 µM): about 99% | survival [5]: long time survival | solubility in water [6]: highly insoluble in water

O=c1[nH]c(=O)c2[nH]cnc2[nH]1 [xanthine]
uricosuric effect / uric acid levels in the blood [3]: ineffective

(-) epicatechin gallate
inhibition of SIN-1 activated luminol light [1, 7]: about 50% | inhibition of SIN-1 activated luminol light ([1]; 1:1000 dilution (stock 0.45 mMolar), listed as epicatechin gallate (-)): 60% | inhibition of light, peroxynitrite as activator of luminol light ([2]; 1:10 dilution): 100% | inhibition of peroxynitrite-based luminol light [2]: about 50% | inhibition of light production, peroxynitrite as activator of luminol light ([2]; consecutive 10 fold dilution after 1:10): about 25% | relative antioxidant activity among the catechins tested [2]: second most active antioxidant

(-) epigallocatechin gallate
inhibition of SIN-1 activated luminol light ([1]; 1:10 dilution): 100% | effect on light from SIN-1 [1, 8]: stimulation of light | inhibition of SIN-1 activated luminol light ([1]; full strength): 100% | effect on SIN-1 activated luminol light ([1]; further dilution beyond 1:10): stimulate production of light | effect on light from peroxynitrite [2, 8]: stimulation of light | pattern with peroxynitrite based light compared with SIN-1 activated light ([2]; full strength and 10 fold dilutions): same pattern of behavior | relative antioxidant activity among the catechins tested [2]: weakest antioxidant tested
